SMILES strings stand for the structures. Counter-ions that a name gives are not always drawn.

ATM, sequence (Q13315 whole entry): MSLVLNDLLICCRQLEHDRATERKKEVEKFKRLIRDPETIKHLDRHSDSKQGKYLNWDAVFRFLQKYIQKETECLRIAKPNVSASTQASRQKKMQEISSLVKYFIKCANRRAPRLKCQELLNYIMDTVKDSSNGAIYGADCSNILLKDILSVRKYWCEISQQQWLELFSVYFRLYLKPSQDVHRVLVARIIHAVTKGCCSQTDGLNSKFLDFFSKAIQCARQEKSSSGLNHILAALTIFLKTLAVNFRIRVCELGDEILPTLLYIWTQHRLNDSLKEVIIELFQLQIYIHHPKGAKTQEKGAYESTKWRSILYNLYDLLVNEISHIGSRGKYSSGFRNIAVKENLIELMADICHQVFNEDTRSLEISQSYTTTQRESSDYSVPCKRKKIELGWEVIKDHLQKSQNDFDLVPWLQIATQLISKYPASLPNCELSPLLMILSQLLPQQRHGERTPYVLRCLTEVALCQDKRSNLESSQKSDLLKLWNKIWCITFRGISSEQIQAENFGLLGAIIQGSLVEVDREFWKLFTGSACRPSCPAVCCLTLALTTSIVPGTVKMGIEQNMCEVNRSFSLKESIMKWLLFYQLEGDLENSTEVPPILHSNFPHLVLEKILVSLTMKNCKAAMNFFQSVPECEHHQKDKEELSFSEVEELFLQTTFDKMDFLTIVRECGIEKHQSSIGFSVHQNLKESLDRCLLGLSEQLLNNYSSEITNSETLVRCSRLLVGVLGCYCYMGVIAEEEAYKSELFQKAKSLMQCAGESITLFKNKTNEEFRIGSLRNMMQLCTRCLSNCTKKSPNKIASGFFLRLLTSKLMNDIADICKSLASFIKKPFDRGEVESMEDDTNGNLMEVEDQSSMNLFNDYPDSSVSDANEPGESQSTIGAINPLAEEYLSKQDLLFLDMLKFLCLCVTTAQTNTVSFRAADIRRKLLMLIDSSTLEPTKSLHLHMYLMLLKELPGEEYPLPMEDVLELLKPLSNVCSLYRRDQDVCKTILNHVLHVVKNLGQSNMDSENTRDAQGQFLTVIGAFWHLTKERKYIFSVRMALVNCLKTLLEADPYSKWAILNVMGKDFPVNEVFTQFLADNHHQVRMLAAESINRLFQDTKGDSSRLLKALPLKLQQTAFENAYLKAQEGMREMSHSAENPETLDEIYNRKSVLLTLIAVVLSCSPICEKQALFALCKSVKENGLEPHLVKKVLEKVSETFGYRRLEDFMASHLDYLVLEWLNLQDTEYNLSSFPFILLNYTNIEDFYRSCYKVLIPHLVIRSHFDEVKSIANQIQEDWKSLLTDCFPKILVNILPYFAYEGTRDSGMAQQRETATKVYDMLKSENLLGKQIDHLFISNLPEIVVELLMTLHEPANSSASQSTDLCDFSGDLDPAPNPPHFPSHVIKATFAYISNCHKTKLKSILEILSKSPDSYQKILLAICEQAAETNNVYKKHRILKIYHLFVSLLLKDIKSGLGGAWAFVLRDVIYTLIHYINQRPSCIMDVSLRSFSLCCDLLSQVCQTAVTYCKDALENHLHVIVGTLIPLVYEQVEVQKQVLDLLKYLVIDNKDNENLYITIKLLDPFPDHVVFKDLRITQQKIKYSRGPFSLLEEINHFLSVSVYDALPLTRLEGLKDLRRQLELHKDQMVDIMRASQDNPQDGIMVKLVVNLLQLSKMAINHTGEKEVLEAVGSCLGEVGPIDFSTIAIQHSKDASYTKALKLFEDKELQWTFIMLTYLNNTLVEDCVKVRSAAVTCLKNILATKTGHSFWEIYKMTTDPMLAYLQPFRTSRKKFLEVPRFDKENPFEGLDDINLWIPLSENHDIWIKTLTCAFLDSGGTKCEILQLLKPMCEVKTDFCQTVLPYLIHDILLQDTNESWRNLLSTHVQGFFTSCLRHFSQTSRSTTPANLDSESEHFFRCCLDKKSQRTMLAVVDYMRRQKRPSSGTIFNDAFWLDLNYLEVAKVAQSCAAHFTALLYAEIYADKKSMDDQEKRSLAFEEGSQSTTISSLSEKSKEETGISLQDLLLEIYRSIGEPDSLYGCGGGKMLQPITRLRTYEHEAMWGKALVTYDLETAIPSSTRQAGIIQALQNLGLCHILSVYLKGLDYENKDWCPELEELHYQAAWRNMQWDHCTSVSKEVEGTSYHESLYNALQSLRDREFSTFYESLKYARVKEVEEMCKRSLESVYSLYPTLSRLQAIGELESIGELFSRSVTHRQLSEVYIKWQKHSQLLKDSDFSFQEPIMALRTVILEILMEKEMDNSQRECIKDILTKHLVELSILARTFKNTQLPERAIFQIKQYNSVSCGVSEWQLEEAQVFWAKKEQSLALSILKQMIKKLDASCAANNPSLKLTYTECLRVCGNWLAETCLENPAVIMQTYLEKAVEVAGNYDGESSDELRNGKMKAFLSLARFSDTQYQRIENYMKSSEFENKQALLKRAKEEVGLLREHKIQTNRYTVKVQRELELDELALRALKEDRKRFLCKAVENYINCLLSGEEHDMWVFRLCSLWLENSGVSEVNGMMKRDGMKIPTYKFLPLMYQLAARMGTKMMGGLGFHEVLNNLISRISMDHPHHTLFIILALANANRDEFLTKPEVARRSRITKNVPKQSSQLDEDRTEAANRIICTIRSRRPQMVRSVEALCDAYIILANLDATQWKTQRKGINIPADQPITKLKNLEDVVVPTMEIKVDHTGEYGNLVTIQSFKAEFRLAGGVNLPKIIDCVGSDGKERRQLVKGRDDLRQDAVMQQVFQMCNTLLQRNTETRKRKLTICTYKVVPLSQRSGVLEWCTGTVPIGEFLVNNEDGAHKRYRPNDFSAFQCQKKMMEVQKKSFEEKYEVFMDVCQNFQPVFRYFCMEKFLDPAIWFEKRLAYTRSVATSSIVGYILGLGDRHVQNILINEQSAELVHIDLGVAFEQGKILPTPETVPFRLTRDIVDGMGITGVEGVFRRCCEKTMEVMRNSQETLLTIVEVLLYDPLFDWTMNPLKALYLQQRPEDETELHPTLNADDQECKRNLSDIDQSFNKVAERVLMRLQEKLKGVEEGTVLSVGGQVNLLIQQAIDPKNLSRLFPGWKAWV

The first assay concerns the target ATM (Homo sapiens (Human), UniProt Q13315). Kind of assay: ATM in Cell Western Assay (pKAP1 in etoposide-treated MCF-7 cells). In kind it is cell-based. To be noted: MCF-7 cells, etoposide 100 μM, 1 hr, pKAP1 readout. The method, boiled down: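 After paraformaldehyde fixation and Triton X-100 permeabilization, immunostained plates were read by infrared scanning (ODYSSEY CLx). Compound was given as 10 doses, 3-fold dilutions from a 1 μM final top concentration.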
By IC50 is commonly meant the concentration that gives 50% inhibition. Higher therefore signals lower potency. In turn, `CCN1C(=O)C2(CCC2)c2c1cnc1ccc(-c3cnc(N4CC(N(C)C)C4)c(NS(C)(=O)=O)c3)cc21` [Example 336, N-(2-(3-(Dimethylamino)azetidin-1-yl)-5-(3′-ethyl-2′-oxo-2′,3′-dihydrospiro [cyclobutane-1,1′-pyrrolo[2,3-c]quinolin]-8′-yl)pyridin-3-yl) methanesulfonamide] gave an IC50 of 1 to 100 nM.

Staying with this assay, now noted: pKAP1 in etoposide-treated MCF-7 cells.
Consider `CCN1C(=O)C2(CCC2)c2c1cnc1ccc(-c3cnc(N4CC(N(C)C)C4)c(NS(=O)(=O)c4ccccc4)c3)cc21` [Example 337, N-(2-(3-(Dimethylamino)azetidin-1-yl)-5-(3′-ethyl-2′-oxo-2′,3′-dihydrospiro[cyclobutane-1,1′-pyrrolo[2,3-c]quinolin]-8′-yl)pyridin-3-yl)benzenesulfonamide], for which the IC50 lay within 1 to 100 nM.
Same read-out and setting: the figure for `CNS(=O)(=O)Nc1cc(-c2cc3c4c(cnc3cc2F)N(C)C(=O)C42CCC2)cnc1N1CC(N(C)C)C1` [Example 340, 8′-{6-[3-(Dimethylamino)azetidin-1-yl]-5-[(methylsulfamoyl)amino]pyridin-3-yl}-7′-fluoro-3′-methyl-2′,3′-dihydrospiro[cyclobutane-1,1′-pyrrolo[2,3-c]quinoline]-2′-one] is 1 to 100 nM; for `CN1C(=O)C2(CCC2)c2c1cnc1cc(F)c(-c3cnc(N4CC(N(C)C)C4)c(NS(=O)(=O)C(F)F)c3)cc21` [Example 341, N-(2-(3-(Dimethylamino)azetidin-1-yl)-5-(7′-fluoro-3′-methyl-2′-oxo-2′,3′-dihydrospiro[cyclobutane-1,1′-pyrrolo[2,3-c]quinolin]-8′-yl)pyridin-3-yl)-1,1′-difluoromethane-sulfonamide formate] it is above 100 nM.
On the same count and under the same terms, to `CN1C(=O)C2(CCC2)c2c1cnc1cc(F)c(-c3cnc(N4CC(N(C)C)C4)c(NS(=O)(=O)CC#N)c3)cc21` [Example 342, 1-Cyano-N-(2-(3-(dimethylamino)azetidin-1-yl)-5-(7′-fluoro-3′-methyl-2′-oxo-2′,3′-dihydrospiro [cyclobutane-1,1′-pyrrolo [2,3-c]quinolin]-8′-yl)pyridin-3-yl)methanesulfonamide hydrochloride] belongs above 100 nM.
The same measure, in the same setting: to `CN1C(=O)C2(CCC2)c2c1cnc1cc(F)c(-c3cnc(N4CC(CN5CCOCC5)C4)c(NS(C)(=O)=O)c3)cc21` [Example 344, N-(5-(7′-Fluoro-3′-methyl-2′-oxo-2′,3′-dihydrospiro[cyclobutane-1,1′-pyrrolo[2,3-c]quinolin]-8′-yl)-2-(3-(morpholinomethyl)azetidin-1-yl)pyridin-3-yl)methanesulfonamideformate] belongs above 100 nM.
Turning to `CN1CC2(C1)CN(c1ncc(-c3ccc4ncc5c(c4c3)C3(CCC3)C(=O)N5C)cc1NS(C)(=O)=O)C2` [Example 345, N-(5-(3′-Methyl-2′-oxo-2′,3′-dihydrospiro[cyclobutane-1,1′-pyrrolo[2,3-c]quinolin]-8′-yl)-2-(6-methyl-2,6-diazaspiro[3.3]heptan-2-yl)pyridin-3-yl)methanesulfonamide formate], the IC50 was 1 to 100 nM.
`CN1C(=O)C2(CCC2)c2c1cnc1ccc(-c3cnc(N4CC5(CNC5)C4)c(NS(C)(=O)=O)c3)cc21` [Example 346, N-(5-(3′-Methyl-2′-oxo-2′,3′-dihydrospiro[cyclobutane-1,1 pyrrole[2,3-c]quinolin]-8′-yl)-2-(2,6-diazaspiro[3.3]heptan-2-yl)pyridin-3-yl) methanesulfonamide formate] had an IC50 above 100 nM.
With `CN1C(=O)C2(CCC2)c2c1cnc1ccc(-c3cnc(N4CC5(CN(C(=O)OC(C)(C)C)C5)C4)c(NS(C)(=O)=O)c3)cc21` [Example 347, tert-Butyl 6-(5-(3′-methyl-2′-oxo-2′,3′-dihydrospiro [cyclobutane-1,1′-pyrrolo[2,3-c]quinolin]-8′-yl)-3-(methylsulfonamido)pyridin-2-yl)-2,6-diazaspiro[3.3] heptane-2-carboxylate], the IC50 was above 100 nM.
Molecule `CN1C(=O)C2(CCC2)c2c1cnc1ccc(-c3cnc(N4CC5CN(C(=O)OC(C)(C)C)CC5C4)c(NS(C)(=O)=O)c3)cc21` (centres unmarked) [Example 348, tert-Butyl 5-(5-(3′-methyl-2′-oxo-2′,3′-dihydrospiro [cyclobutane-1,1′-pyrrolo[2,3-c]quinolin]-8′-yl)-3-(methylsulfonamido)pyridin-2-yl) hexahydropyrrolo [3,4-c] pyrrole-2(1H)-carboxylate] displayed an IC50 above 100 nM.
On to `CN1C(=O)C2(CCC2)c2c1cnc1ccc(-c3cnc(N4CC5CNCC5C4)c(NS(C)(=O)=O)c3)cc21` (centres unmarked) [Example 349, N-(2-(Hexahydropyrrolo[3,4-c]pyrrol-2(1H)-yl)-5-(3′-methyl-2′-oxo-2′,3′-dihydrospiro [cyclobutane-1,1′-pyrrolo[2,3-c]quinolin]-8′-yl)pyridin-3-yl) methanesulfonamide formate], for which the half-inhibitory concentration (IC50) is 1 to 100 nM.
The same measure, in the same setting: to `CN1C(=O)C2(CCC2)c2c1cnc1ccc(-c3cnc(N4CCC(C)(N5CCCCC5)CC4)c(NS(C)(=O)=O)c3)cc21` [Example 354, N-(5-(3′-Methyl-2′-oxo-2′,3′-dihydrospiro[cyclobutane-1,1′-pyrrolo[2,3-c]quinolin]-8′-yl)-2-(4′-methyl-[l,4′-bipiperidin]-1′-yl)pyridin-3-yl)methanesulfonamide] belongs above 100 nM; to `CN1C(=O)C2(CCC2)c2c1cnc1ccc(-c3cnc(N4CC5CC(C4)N5C(=O)OC(C)(C)C)c(NS(C)(=O)=O)c3)cc21` [Example 359, tert-Butyl 3-(5-(3′-methyl-2′-oxo-2′,3′-dihydrospiro [cyclobutane-1,1′-pyrrolo[2,3-c]quinolin]-8′-yl)-3-(methylsulfonamido)pyridin-2-yl)-3,6-diazabicydo[3.1.1] heptane-6-carboxylate], above 100 nM; to `CN1C(=O)C2(CCC2)c2c1cnc1ccc(-c3cnc(N4CC5CC(C4)N5)c(NS(C)(=O)=O)c3)cc21` [Example 360, N-(2-(3,6-Diazabicyclo[3.1.1]heptan-3-yl)-5-(3′-methyl-2′-oxo-2′,3′-dihydrospiro[cyclobutane-1,1′-pyrrolo[2,3-c]quinolin]-8′-yl)pyridin-3-yl) methanesulfonamide formate], above 100 nM.
Regarding `CN1C(=O)C2(CCC2)c2c1cnc1ccc(-c3cnc(N4CC5CC(C4)N5C)c(NS(C)(=O)=O)c3)cc21` [Example 361, N-(5-(3′-Methyl-2′-oxo-2′,3′-dihydrospiro[cyclobutane-1,1′-pyrrolo[2,3-c]quinolin]-8′-yl)-2-(6-methyl-3,6-diazabicyclo[3.1.1]heptan-3-yl)pyridin-3-yl)methanesulfonamide formate], the IC50 was above 100 nM.
The molecule `CN(C)CCCN(C)c1ncc(-c2ccc3ncc4c(c3c2)C2(CCC2)C(=O)N4C)cc1NS(C)(=O)=O` [Example 362, N-(2-((3-(Dimethylamino)propyl)(methyl)amino)-5-(3′-methyl-2′-oxo-2′,3′-dihydrospiro[cyclobutane-1,1′-pyrrolo[2,3-c]quinolin]-8′-yl)pyridin-3-yl)methanesulfonamide hydrochloride] returned an IC50 of 1 to 100 nM.
Still for that read-out and setting: to `CN(C)CCN(C)c1ncc(-c2cc3c4c(cnc3cc2F)N(C)C(=O)C42CCC2)cc1NS(C)(=O)=O` [Example 363, N-(2-((2-(Dimethylamino)ethyl)(methyl)amino)-5-(7′-fluoro-3′-methyl-2′-oxo-2′,3′-dihydrospiro[cyclobutane-1,1′-pyrrolo[2,3-c]quinolin]-8′-yl)pyridin-3-yl)methanesulfonamide hydrochloride] belongs above 100 nM.
Turning to `CN(C)c1ncc(-c2cc3c4c(cnc3cc2F)N(C)C(=O)C42CCC2)cn1` [Example 364, 8′-(2-(Dimethylamino)pyrimidin-5-yl)-7′-fluoro-3′-methylspiro[cyclobutane-1,1′-pyrrolo[2,3-c]quinolin]-2′(3′-H)-one], the half-maximal inhibitory concentration (IC50) is above 100 nM.
In turn, `CC(C)NCCOc1ncc(-c2cc3c4c(cnc3cc2F)N(C)C(=O)C42CCC2)cc1NS(=O)(=O)C(F)F` [Example 368, 1,1-Difluoro-N-(5-(7′-fluoro-3′-methyl-2′-oxo-2′,3′-dihydrospiro[cyclobutane-1,1′-pyrrolo[2,3-c]quinolin]-8′-yl)-2-(2-(isopropylamino)ethoxy)pyridin-3-yl)methanesulfonamide] displayed an IC50 above 100 nM.
On the same count and under the same terms, the figure for `CC(C)NCCOc1ncc(-c2cc3c4c(cnc3cc2F)N(C)C(=O)C42CCC2)cc1NS(=O)(=O)N1CC(C#N)C1` [Example 372, 3-Cyano-N-(5-(7′-fluoro-3′-methyl-2′-oxo-2′,3′-dihydrospiro[cyclobutane-1,1′-pyrrolo[2,3-c]quinolin]-8′-yl)-2-(2-(isopropylamino)ethoxy)pyridin-3-yl)azetidine-1-sulfonamide] is above 100 nM; for `CC(C)NCCOc1ncc(-c2cc3c4c(cnc3cc2F)N(C)C(=O)C42CCC2)cc1NS(=O)(=O)CC#N` [Example 374, 1-Cyano-N′-(5-(7′-fluoro-3′-methyl-2′-oxo-2′,3′-dihydrospiro[cyclobutane-1,1′-pyrrolo[2,3-c]quinolin]-8′-yl)-2-(2-(isopropylamino)ethoxy)pyridin-3-yl) methanesulfonamide hydrochloride] it is 1 to 100 nM; for `CN1C(=O)C2(CCC2)c2c1cnc1cc(F)c(-c3cnc(OCCNC4CC4)c(NS(C)(=O)=O)c3)cc21` [Example 376, N-(2-(2-(Cyclopropylamino)ethoxy)-5-(7′-fluoro-3′-methyl-2′-oxo-2′,3′-dihydrospiro[cyclobutane-1,1′-pyrrolo[2,3-c]quinolin]-8′-yl)pyridin-3-yl)methanesulfonamide hydrochloride] it is 1 to 100 nM.
`CN1C(=O)C2(CCC2)c2c1cnc1cc(F)c(-c3cnc(OCCNC4CCC4)c(NS(C)(=O)=O)c3)cc21` [Example 377, N-(2-(2-(Cyclobutylamino)ethoxy)-5-(7′-fluoro-3′-methyl-2′-oxo-2′,3′-dihydrospiro[cyclobutane-1,1′-pyrrolo[2,3-c]quinolin]-8′-yl)pyridin-3-yl)methanesulfonamide]: the IC50 is above 100 nM.

For the origin of these results see patent US12187742B2 (XRAD Therapeutics, Inc., priority 2018, dated 2025).
